Experiments:
Assay type in all cases: biochemical
PAK3 = PAK3 (Homo sapiens, UniProt O75914); assay: In vitro PAK inhibition assay (Z'-LYTE, SelectScreen), PAK3; settings: read-out: PAK3 IC50
Description: (§1) Compounds are screened in 1% DMSO (final) in the well. For 10 point titrations, 3-fold serial dilutions are conducted. All Peptide/Kinase Mixtures are diluted to a 2× working concentration in the appropriate Kinase Buffer
The 2×PAK3/Ser/Thr 20 mixture is prepared in 50 mM HEPES pH 7.5, 0.01% BRIJ-35, 10 mM MgCl2, 1 mM EGTA.
(§2) 1. Add the following solutions to a well in a 384-well plate: • 2.5 μL of 4× Test Compound OR (100 nL 100× Test Compound plus 2.4 μL kinase buffer) • 5 μL of 2× Peptide/Kinase (PAK) Mixture • 2.5 μL of 4×ATP Solution
(§3) 3. Incubate the PAK Kinase Reaction at room temperature for 60-minutes
(§4) 4. Add 5 μL of Development Reagent Solution to each well
(§5) 6. Incubate the Development Reaction for 60-minutes
(§6) 7. Determine the fluorescence using a fluorescence plate reader
(§7) SelectScreen® Kinase Profiling Service uses XLfit from IDBS.
(§8) The representative IC50 value with a known inhibitor for each kinase was determined at the ATP bin nearest to the ATP Km app.

PAK2 (PAK65) = PAK2 (PAK65) (Homo sapiens, UniProt Q13177); assay: In vitro PAK inhibition assay (Z'-LYTE, SelectScreen), PAK2; settings: read-out: PAK2 IC50
Description: as §1
The 2×PAK2 (PAK65)/Ser/Thr 20 mixture is prepared in 50 mM HEPES pH 7.5, 0.01% BRIJ-35, 10 mM MgCl2, 1 mM EGTA. The final 10 μL Kinase Reaction consists of 0.29-6 ng PAK2 (PAK65) and 2 μM Ser/Thr 20 in 50 mM HEPES pH 7.5, 0.01% BRIJ-35, 10 mM MgCl2, 1 mM EGTA.
as §2, §3, §4, §5, §6, §7, §8

PAK4 = PAK4 (Homo sapiens, UniProt O96013); assay: In vitro PAK inhibition assay (Z'-LYTE, SelectScreen), PAK4
Description: as §1
The 2×PAK-4/Ser/Thr 20 mixture is prepared in 50 mM HEPES pH 7.5, 0.01% BRIJ-35, 10 mM MgCl2, 1 mM EGTA. The final 10 μL Kinase Reaction consists of 0.1-0.75 ng PAK-4 and 2 μM Ser/Thr 20 in 50 mM HEPES pH 7.5, 0.01% BRIJ-35, 10 mM MgCl2, 1 mM EGTA. After the 1 hour Kinase Reaction incubation, 5 μL of a 1:256 dilution of Development Reagent A is added.
as §2, §3, §4, §5, §6
SelectScreen® Kinase Profiling Service uses XLfit from IDBS. The dose response curve is curve fit to model number 205 (sigmoidal dose-response model).
The table below provides specifications and data around each kinase. The representative IC50 value with a known inhibitor for each kinase was determined at the ATP bin nearest to the ATP Km app.

PAK1 = PAK1 (Homo sapiens, UniProt Q13153); assay: In vitro PAK inhibition assay (Z'-LYTE, SelectScreen), PAK1; settings: read-out: PAK1 IC50
Description: as §1
The 2×PAK1/Ser/Thr 19 mixture is prepared in 50 mM HEPES pH 7.5, 0.01% BRIJ-35, 10 mM MgCl2, 1 mM EGTA.
as §2, §3, §4, §5, §6, §7, §8

PAK3, sequence (O75914 1-544 isoform O75914-2): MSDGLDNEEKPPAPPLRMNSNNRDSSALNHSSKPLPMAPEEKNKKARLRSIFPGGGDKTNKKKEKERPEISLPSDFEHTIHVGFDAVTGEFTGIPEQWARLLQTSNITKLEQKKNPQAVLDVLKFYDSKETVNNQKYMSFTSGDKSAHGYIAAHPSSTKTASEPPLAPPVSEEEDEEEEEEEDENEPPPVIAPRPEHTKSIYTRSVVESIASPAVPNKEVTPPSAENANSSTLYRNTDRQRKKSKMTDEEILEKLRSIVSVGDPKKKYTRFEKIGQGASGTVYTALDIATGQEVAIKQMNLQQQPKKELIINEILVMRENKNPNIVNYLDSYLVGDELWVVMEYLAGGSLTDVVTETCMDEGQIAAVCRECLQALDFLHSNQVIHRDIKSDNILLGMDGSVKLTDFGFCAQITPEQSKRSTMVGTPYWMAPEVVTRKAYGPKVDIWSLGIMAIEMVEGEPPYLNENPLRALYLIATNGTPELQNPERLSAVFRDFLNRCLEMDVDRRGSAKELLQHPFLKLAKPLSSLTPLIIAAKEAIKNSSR
PAK2 (PAK65), sequence (Q13177 whole entry): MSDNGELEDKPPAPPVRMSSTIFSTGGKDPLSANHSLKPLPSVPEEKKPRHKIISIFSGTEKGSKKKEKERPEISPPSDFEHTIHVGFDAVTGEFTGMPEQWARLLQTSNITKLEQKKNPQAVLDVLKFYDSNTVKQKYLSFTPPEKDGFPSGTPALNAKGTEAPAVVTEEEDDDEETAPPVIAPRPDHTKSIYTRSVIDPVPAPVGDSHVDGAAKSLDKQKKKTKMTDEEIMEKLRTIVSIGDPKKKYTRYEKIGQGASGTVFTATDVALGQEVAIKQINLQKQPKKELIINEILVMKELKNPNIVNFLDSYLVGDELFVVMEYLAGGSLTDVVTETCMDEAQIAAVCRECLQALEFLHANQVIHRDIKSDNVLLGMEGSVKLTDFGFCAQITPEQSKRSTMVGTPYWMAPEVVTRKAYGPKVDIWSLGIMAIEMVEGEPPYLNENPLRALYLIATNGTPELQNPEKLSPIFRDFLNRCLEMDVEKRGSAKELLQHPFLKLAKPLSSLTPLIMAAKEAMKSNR
PAK4, sequence (O96013 whole entry): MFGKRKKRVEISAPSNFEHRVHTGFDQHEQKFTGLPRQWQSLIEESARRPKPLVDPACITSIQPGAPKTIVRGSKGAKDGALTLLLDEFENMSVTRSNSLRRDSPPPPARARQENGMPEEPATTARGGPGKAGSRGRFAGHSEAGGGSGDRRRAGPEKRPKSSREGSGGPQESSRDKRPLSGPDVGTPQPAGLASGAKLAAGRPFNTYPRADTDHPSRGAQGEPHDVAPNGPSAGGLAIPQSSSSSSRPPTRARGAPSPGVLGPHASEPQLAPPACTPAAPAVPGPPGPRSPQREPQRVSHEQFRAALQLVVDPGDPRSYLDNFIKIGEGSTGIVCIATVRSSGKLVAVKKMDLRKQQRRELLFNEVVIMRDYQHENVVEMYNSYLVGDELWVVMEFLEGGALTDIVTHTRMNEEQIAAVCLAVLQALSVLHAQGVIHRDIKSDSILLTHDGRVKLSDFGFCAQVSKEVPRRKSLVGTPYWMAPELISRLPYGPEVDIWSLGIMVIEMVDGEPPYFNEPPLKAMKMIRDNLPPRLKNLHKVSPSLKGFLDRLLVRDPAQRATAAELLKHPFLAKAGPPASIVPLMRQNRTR
PAK1, sequence (Q13153 whole entry): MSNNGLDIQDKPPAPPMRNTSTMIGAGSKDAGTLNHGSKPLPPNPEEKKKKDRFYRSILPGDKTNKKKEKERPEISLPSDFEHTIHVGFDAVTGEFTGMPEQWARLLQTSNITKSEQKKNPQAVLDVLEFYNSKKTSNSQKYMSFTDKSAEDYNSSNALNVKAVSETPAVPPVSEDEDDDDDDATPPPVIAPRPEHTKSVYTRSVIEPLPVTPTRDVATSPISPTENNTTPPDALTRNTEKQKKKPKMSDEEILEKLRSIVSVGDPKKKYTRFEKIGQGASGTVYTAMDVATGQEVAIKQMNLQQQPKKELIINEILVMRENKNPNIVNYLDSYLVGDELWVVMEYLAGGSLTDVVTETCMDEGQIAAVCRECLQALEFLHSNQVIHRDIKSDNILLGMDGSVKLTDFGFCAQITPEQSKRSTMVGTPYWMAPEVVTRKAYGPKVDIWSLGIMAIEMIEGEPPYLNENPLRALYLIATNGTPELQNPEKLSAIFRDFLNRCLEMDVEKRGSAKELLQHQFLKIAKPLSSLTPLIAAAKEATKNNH

| Compound | IC50 (PAK3) [nM] | IC50 (PAK2 (PAK65)) [nM] | IC50 (PAK4) [nM] | IC50 (PAK1) [nM] |
| --- | --- | --- | --- | --- |
| Cc1nccnc1-c1ccc(-c2cc3cnc(NC4CCOCC4)nc3n(Cc3ccccc3C(F)(F)F)c2=O)c(Cl)c1 [Example 21] | < 50 | < 50 | > 5000 | < 50 |
| CCn1c(=O)c(-c2ccc(-c3ccnc(C)n3)cc2Cl)cc2cnc(NC3CCOCC3)nc21 [Example 8] | 50 to 500 | 50 to 500 | > 5000 | 50 to 500 |
| CCn1c(=O)c(-c2ccc(-c3cncc(C)c3)cc2Cl)cc2cnc(N[C@@H]3CCOC3)nc21 [Example 61] | 500 to 5000 | 50 to 500 | > 5000 | 50 to 500 |
| CCn1c(=O)c(-c2ccc(-c3cncc(C)n3)cc2Cl)cc2cnc(NC3CCC(CCN(C)C)CC3)nc21 (stereo not shown) [Example 70] | 50 to 500 | < 50 | > 5000 | < 50 |
| CCn1c(=O)c(-c2ccc(-c3cncc(C)n3)cc2Cl)cc2cnc(NC3CNC(=O)C3)nc21 (stereo not shown) [Example 66] | 50 to 500 | < 50 | > 5000 | 50 to 500 |
| COCCCn1c(=O)c(-c2ccc(-c3cncc(C)n3)cc2Cl)cc2cnc(N[C@@H]3CCOC3)nc21 [Example 64] | 50 to 500 | < 50 | > 5000 | < 50 |
| Cc1nccnc1-c1ccc(-c2cc3cnc(NC4CCOCC4)nc3n(Cc3ccccc3)c2=O)c(Cl)c1 [Example 16] | 50 to 500 | < 50 | > 5000 | < 50 |
| CCn1c(=O)c(-c2ccc(-c3cccnc3)cc2Cl)cc2cnc(NC3CCOCC3)nc21 [Example 44] | 50 to 500 | 50 to 500 | > 5000 | 50 to 500 |
| O=c1c(-c2ccc(-c3cccnc3)cc2Cl)cc2cnc(NC3CCOCC3)nc2n1Cc1ccccc1C(F)(F)F [Example 22] | 50 to 500 | < 50 | > 5000 | 50 to 500 |
| CCn1c(=O)c(-c2ccc(-c3ccncc3)cc2Cl)cc2cnc(NC3CCOCC3)nc21 [Example 43] | > 5000 | 500 to 5000 | > 5000 | 500 to 5000 |
| CCn1c(=O)c(-c2ccc(-c3cnccn3)cc2Cl)cc2cnc(N[C@@H]3CCOC3)nc21 [Example 60] | 500 to 5000 | 50 to 500 | > 5000 | 50 to 500 |
| CCn1c(=O)c(-c2ccc(-c3cncc(C)n3)cc2Cl)cc2cnc(NC3CCOC3)nc21 (stereo not shown) [Example 29] | 50 to 500 | < 50 | > 5000 | 50 to 500 |
| CCn1c(=O)c(-c2ccc(-c3cccnc3C)cc2Cl)cc2cnc(NC3CCOCC3)nc21 [Example 45] | 500 to 5000 | 500 to 5000 | > 5000 | 50 to 500 |
| CCNc1ncc2cc(-c3ccc(-c4nccnc4C)cc3Cl)c(=O)n(CC)c2n1 [Example 6] | 50 to 500 | 50 to 500 | > 5000 | 50 to 500 |
| CCn1c(=O)c(-c2ccc(-c3nccnc3C)cc2Cl)cc2cnc(NC3C[C@@H](C)O[C@@H](C)C3)nc21 (stereo partly shown) [Example 38] | 50 to 500 | < 50 | > 5000 | < 50 |
| CCn1c(=O)c(-c2ccc(-c3nccnc3C)cc2Cl)cc2cnc(NC3CCCOC3)nc21 (stereo not shown) [Example 17] | 50 to 500 | 50 to 500 | > 5000 | 50 to 500 |
| CCn1c(=O)c(-c2ccc(-c3nccnc3C)cc2Cl)cc2cnc(NC3CCNC(=O)C3)nc21 (stereo not shown) [Example 33] | 50 to 500 | < 50 | > 5000 | 50 to 500 |
| CCn1c(=O)c(-c2ccc(-c3cccnc3OC)cc2Cl)cc2cnc(NC3CCOCC3)nc21 [Example 52] | > 5000 | > 5000 | > 5000 | 500 to 5000 |
| CCn1c(=O)c(-c2ccc(-c3ccn(C)n3)cc2Cl)cc2cnc(N[C@@H]3CCOC3)nc21 [Example 63] | 500 to 5000 | 50 to 500 | > 5000 | 50 to 500 |

Continued, values first:

| IC50 (PAK3) [nM] | IC50 (PAK2 (PAK65)) [nM] | IC50 (PAK4) [nM] | IC50 (PAK1) [nM] | Compound |
| --- | --- | --- | --- | --- |
| 500 to 5000 | 50 to 500 | > 5000 | 50 to 500 | CCn1c(=O)c(-c2ccc(-c3nccnc3C)cc2Cl)cc2cnc(NC3CCS(=O)(=O)CC3)nc21 [Example 75] |
| < 50 | < 50 | 500 to 5000 | < 50 | Cc1cncc(-c2ccc(-c3cc4cnc(NCC5CC5)nc4n([C@H]4CC[C@H](N)CC4)c3=O)c(Cl)c2)n1 [Example 113] |
| < 50 | < 50 | 500 to 5000 | < 50 | Cc1cncc(-c2ccc(-c3cc4cnc(NC5CCCC5)nc4n([C@H]4CC[C@H](N)CC4)c3=O)c(Cl)c2)n1 [Example 118] |
| 50 to 500 | < 50 | > 5000 | < 50 | CCn1c(=O)c(-c2ccc(-c3cncc(C)n3)cc2Cl)cc2cnc(N[C@H]3CC[C@H](N)CC3)nc21 [Example 85] |
| < 50 | < 50 | 500 to 5000 | < 50 | Cc1cncc(-c2ccc(-c3cc4cnc(NCC(C)C)nc4n([C@H]4CC[C@H](N)CC4)c3=O)c(Cl)c2)n1 [Example 115] |
| 500 to 5000 | 50 to 500 | > 5000 | 50 to 500 | CCN(CC)CCn1c(=O)c(-c2ccc(-c3cncc(C)n3)cc2Cl)cc2cnc(N[C@@H]3CCOC3)nc21 [Example 96] |
| 500 to 5000 | 50 to 500 | > 5000 | 50 to 500 | CCn1c(=O)c(-c2ccc(-c3nccnc3C)cc2Cl)cc2cnc(NC3CCCNC3)nc21 (stereo not shown) [Example 82] |
| 50 to 500 | < 50 | > 5000 | < 50 | CCn1c(=O)c(-c2ccc(-c3nccnc3C)cc2Cl)cc2cnc(N[C@H]3CCOC(C)(C)C3)nc21 (stereo in doubt) [Example 77] |
| 50 to 500 | 50 to 500 | > 5000 | 50 to 500 | CCn1c(=O)c(-c2ccc(-c3cncc(C)n3)cc2Cl)cc2cnc(NCCCOCCCN(C)C)nc21 [Example 130] |
| 50 to 500 | < 50 | > 5000 | 50 to 500 | CCn1c(=O)c(-c2ccc(-c3noc(C)n3)cc2Cl)cc2cnc(NCCC3CCNCC3)nc21 [Example 137] |
| 50 to 500 | < 50 | > 5000 | < 50 | Cc1cncc(-c2ccc(-c3cc4cnc(N[C@@H]5CCOC5)nc4n(CCN)c3=O)c(Cl)c2)n1 [Example 99] |
| 50 to 500 | 50 to 500 | > 5000 | 50 to 500 | Cc1cncc(-c2ccc(-c3cc4cnc(N[C@@H]5CCOC5)nc4n(C4CCNCC4)c3=O)c(Cl)c2)n1 [Example 105] |
| 50 to 500 | < 50 | > 5000 | < 50 | CCn1c(=O)c(-c2cc(C)c(-c3cncc(C)n3)cc2Cl)cc2cnc(N[C@@H]3CCOC3)nc21 [Example 71] |
| 500 to 5000 | 50 to 500 | > 5000 | 50 to 500 | CCn1c(=O)c(-c2ccc(-c3cncc(C)n3)cc2Cl)cc2cnc(NCCCOCCN)nc21 [Example 133] |
| 50 to 500 | < 50 | > 5000 | < 50 | Cc1nccnc1-c1ccc(-c2cc3cnc(N[C@H]4CCOC4)nc3n(Cc3ccccn3)c2=O)c(Cl)c1 [Example 125] |
| < 50 | < 50 | > 5000 | < 50 | CCn1c(=O)c(-c2ccc(-c3cncc(C)n3)cc2Cl)cc2cnc(N[C@H]3CC[C@H](CN)CC3)nc21 [Example 87] |
| 500 to 5000 | 50 to 500 | > 5000 | 50 to 500 | CCn1c(=O)c(-c2ccc(-c3nccnc3C)cc2Cl)cc2cnc(NC3CCN(C)C3)nc21 (stereo not shown) [Example 78, 6-(2-chloro-4-(3-methylpyrazin-2-yl)phenyl)-8-ethyl-2-((1-methylpyrrolidin-3-yl)amino)pyrido[2,3-d]pyrimidin-7(8H)-one] |
| 500 to 5000 | 50 to 500 | > 5000 | 50 to 500 | CCn1c(=O)c(-c2ccc(-c3nccnc3C)cc2Cl)cc2cnc(NC3CCNC3)nc21 (stereo not shown) [Example 83] |

Source: patent publication US20130116263A1, “PAK INHIBITORS FOR THE TREATMENT OF CELL PROLIFERATIVE DISORDERS” (AFRAXIS, INC., priority 2011, published 2013)
